The record followed here is paper PMC8513920 (Chemical Science, 2021).

This data set in a line: High-throughput Equilibrium Solubility measurement. It counts as physicochemical. The following applies: phosphate buffer, pH 6.8.

≈ marks a conversion by molar mass, not a printed value.

What is called solubility is the dissolved amount per volume that the medium holds. A lower solubility goes with a poorly soluble substance. In turn, `N#Cc1c[nH]c2c(C(=O)N3CCN(CCc4ccc(F)cc4)CC3)cccc12` [compound 3, pruvanserin] registered a solubility of 17 µM (≈ 6.4 µg/mL).
